In patent US12421276B2 (priority 2016, dated 2025):
“And” between values parts separate entries of the source, which are not always exact repeats. Equal values may be shown once. Read-outs that look alike come from different tables or passages of the source.

Tests used:
[1] = assay type: in vivo, rat
Outline: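 Male SD rats (n=4/group) dosed PO at 13.2 or 14.2 mg/kg (10 mL/kg) and housed in metabolic cages with daily urine collection. EDTA blood sampled predose to 24 h post-dose, centrifuged at 4 °C to plasma, analysed by LC-MS.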

[2] = Metabolic stability in simulated gastric fluid (SGF), pH 1.2, with or without pepsin; assay type: in vitro ADME; settings: 5 μM, 37° C.
Outline: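 Compound at 5 μM incubated at 37 °C in SGF (34.2 mM NaCl, pH 1.2) without or with 0.32% pepsin; acetonitrile/formic acid quench at time points, LC/MS/MS. Disappearance relative to 0-min; t½ from elimination rate constant of semi-log % remaining vs time.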

[3] = Rat, PO, 10 mg/kg equiv., n = 4, analyte: Parent (BASE STRUCTURE)
[4] = Rat, PO, 10 mg/kg equiv., n = 4, analyte: Prodrug
[5] = rat, dosed as prodrug, 10 mg/kg equivalent of Base Structure, analyte Parent (Base Structure), Average
[6] = rat, dosed as prodrug, 10 mg/kg equivalent of Base Structure, analyte Parent (Base Structure), Combined (average ± std. dev.)
[7] = rat, dosed as prodrug, 10 mg/kg equivalent of Base Structure, analyte Parent (Base Structure), individual animals
[8] = rat, dosed as prodrug, 10 mg/kg equivalent of Base Structure, analyte Parent (Base Structure), individual animals, 10 mg/kg
[9] = rat, dosed as prodrug, 10 mg/kg equivalent of Base Structure, analyte Prodrug, Average
[10] = rat, dosed as prodrug, 10 mg/kg equivalent of Base Structure, analyte Prodrug, Combined (average ± std. dev.)
[11] = rat, dosed as prodrug, 10 mg/kg equivalent of Base Structure, analyte Prodrug, individual animals
[12] = rat, dosed as prodrug, 10 mg/kg equivalent of Base Structure, analyte Prodrug, individual animals, 10 mg/kg

SMILES: CCCCCC(=O)NC(Cc1ccc(OC(=O)NCCN(C)C)cc1)C(=O)NC(C(=O)NCCCCCC(N)=O)C(C)CC (stereo not shown) [Compound A21]
- AUC0-24 [1, 3]: 7.4 ± 0.9 ng·h/mL
- AUC0-inf [1, 3]: 47.8 ± 1 ng·h/mL
- Cmax [1, 3]: 0.6 ± 0.1 ng/mL
- Tmax [1, 3]: 0.9 ± 0.8 h
- half-life [1, 3]: 81.7 ± 5.7 h
- AUC0-24 [1, 4]: 2.8 ± 1.9 ng·h/mL
- AUC0-inf [1, 4]: 6.46 ng·h/mL
- Cmax [1, 4]: 1.6 ± 0.5 ng/mL
- Tmax [1, 4]: 0.8 ± 0.4 h
- half-life [1, 4]: 1.32 h
- AUC 0-inf_obs [1, 5]: 47.78 ng·h/mL
- AUC 0-t [1, 5]: 7.45 ng·h/mL
- AUMC 0-inf_obs [1, 5]: 5777.4305 ng/ml * h^2
- Cl/F_obs [1, 5]: 0.2094 (mg/kg)/(ng/ml)/h
- Cmax [1, 5]: 0.62 ng/mL
- Lambda_z [1, 5]: 0.008507 h⁻¹
- MRT 0-inf_obs [1, 5]: 120.8 h
- Tlag [1, 5]: 0 h
- Tmax [1, 5]: 0.875 h
- Vz/F_obs [1, 5]: 24.65 (mg/kg)/(ng/ml)
- t1/2 [1, 5]: 81.6756 h
- AUC 0-inf_obs [1, 6]: 47.8 ± 1 ng·h/mL
- AUC 0-t [1, 6]: 7.4 ± 0.9 ng·h/mL
- AUMC 0-inf_obs [1, 6]: 5777.4 ± 551.6 ng/ml * h^2
- Cl/F_obs [1, 6]: 0.2 ± 0 (mg/kg)/(ng/ml)/h
- Cmax [1, 6]: 0.6 ± 0.1 ng/mL
- Lambda_z [1, 6]: 0 ± 0 h⁻¹
- MRT 0-inf_obs [1, 6]: 120.8 ± 9.1 h
- Tlag [1, 6]: 0 ± 0 h
- Tmax [1, 6]: 0.9 ± 0.8 h
- Vz/F_obs [1, 6]: 24.7 ± 1.2 (mg/kg)/(ng/ml)
- t1/2 [1, 6]: 81.7 ± 5.7 h
- Tlag [1, 7]: 0 h
- AUC 0-inf_obs [1, 8]: 48.45 ng·h/mL and 47.1 ng·h/mL
- AUC 0-t [1, 8]: 7.285 ng·h/mL and 8.222 ng·h/mL and 6.27 ng·h/mL and 8.022 ng·h/mL
- AUMC 0-inf_obs [1, 8]: 6167.4557 ng/ml * h^2 and 5387.4053 ng/ml * h^2
- Cl/F_obs [1, 8]: 0.2064 (mg/kg)/(ng/ml)/h and 0.2123 (mg/kg)/(ng/ml)/h
- Cmax [1, 8]: 0.744 ng/mL and 0.604 ng/mL and 0.555 ng/mL and 0.577 ng/mL
- Lambda_z [1, 8]: 0.00809 h⁻¹ and 0.008925 h⁻¹
- MRT 0-inf_obs [1, 8]: 127.3 h and 114.4 h
- Tmax [1, 8]: 0.25 h (2×) and 1 h and 2 h
- Vz/F_obs [1, 8]: 25.51 (mg/kg)/(ng/ml) and 23.79 (mg/kg)/(ng/ml)
- t1/2 [1, 8]: 85.68 h and 77.67 h
- AUC 0-inf_obs [1, 9]: 6.459 ng·h/mL
- AUC 0-t [1, 9]: 2.846 ng·h/mL
- AUMC 0-inf_obs [1, 9]: 13.69 ng/ml * h^2
- Cl/F_obs [1, 9]: 1.548 (mg/kg)/(ng/ml)/h
- Cmax [1, 9]: 1.615 ng/mL
- Lambda_z [1, 9]: 0.5257 h⁻¹
- MRT 0-inf_obs [1, 9]: 2.119 h
- Tlag [1, 9]: 0 h
- Tmax [1, 9]: 0.8125 h
- Vz/F_obs [1, 9]: 2.945 (mg/kg)/(ng/ml)
- t1/2 [1, 9]: 1.319 h
- AUC 0-inf_obs [1, 10]: 6.459 ng·h/mL
- AUC 0-t [1, 10]: 2.8 ± 1.9 ng·h/mL
- AUMC 0-inf_obs [1, 10]: 13.69 ng/ml * h^2
- Cl/F_obs [1, 10]: 1.548 (mg/kg)/(ng/ml)/h
- Cmax [1, 10]: 1.6 ± 0.5 ng/mL
- Lambda_z [1, 10]: 0.5257 h⁻¹
- MRT 0-inf_obs [1, 10]: 2.119 h
- Tlag [1, 10]: 0 ± 0 h
- Tmax [1, 10]: 0.8 ± 0.4 h
- Vz/F_obs [1, 10]: 2.945 (mg/kg)/(ng/ml)
- t1/2 [1, 10]: 1.319 h
- AUC 0-inf_obs [1, 11]: 6.459 ng·h/mL
- AUMC 0-inf_obs [1, 11]: 13.69 ng/ml * h^2
- Cl/F_obs [1, 11]: 1.548 (mg/kg)/(ng/ml)/h
- Lambda_z [1, 11]: 0.5257 h⁻¹
- MRT 0-inf_obs [1, 11]: 2.119 h
- Tlag [1, 11]: 0 h
- Vz/F_obs [1, 11]: 2.945 (mg/kg)/(ng/ml)
- t1/2 [1, 11]: 1.319 h
- AUC 0-t [1, 12]: 5.619 ng·h/mL and 2.381 ng·h/mL and 1.498 ng·h/mL and 1.885 ng·h/mL
- Cmax [1, 12]: 2.18 ng/mL and 1.89 ng/mL and 1.01 ng/mL and 1.38 ng/mL
- Tmax [1, 12]: 0.25 h and 1 h (3×)
- SGF Stability (pH 1.2) Half-Life (min) ([2]; +Pepsin (0.32%)): 265.1 min
- SGF Stability (pH 1.2) 0 min ([2]; +Pepsin (0.32%)): 100%
- SGF Stability (pH 1.2) 60 min ([2]; +Pepsin (0.32%)): 87%
- SGF Stability (pH 1.2) 120 min ([2]; +Pepsin (0.32%)): 74%
- SGF Stability (pH 1.2) 240 min ([2]; +Pepsin (0.32%)): 54%

SMILES: CCCCCC(=O)NC(Cc1ccc(OC(=O)N2CCN(C)CC2)cc1)C(=O)NC(C(=O)NCCCCCC(N)=O)C(C)CC (stereo not shown) [Compound A20]
- AUC0-24 (ng · h/mL) [1, 3]: 0.8 ± 1^ ng · h/mL
- AUC0-inf [1, 3]: 1.61 ng·h/mL
- Cmax [1, 3]: 1.7 ± 1.3 ng/mL
- Tmax (h) [1, 3]: 0.3 ± 0^ h
- half-life [1, 3]: 0.17 h
- Tmax [1, 4]: 0 h
- AUC 0-inf_obs [1, 5]: 1.611 ng·h/mL
- AUC 0-t [1, 5]: 0.8309 ng·h/mL
- AUMC 0-inf_obs [1, 5]: 0.6699 ng/ml * h^2
- Cl/F_obs [1, 5]: 6.207 (mg/kg)/(ng/ml)/h
- Cmax [1, 5]: 1.7125 ng/mL
- Lambda_z [1, 5]: 4.022 h⁻¹
- MRT 0-inf_obs [1, 5]: 0.4158 h
- Tlag [1, 5]: 0 h
- Tmax [1, 5]: 0.25 h
- Vz/F_obs [1, 5]: 1.543 (mg/kg)/(ng/ml)
- t1/2 [1, 5]: 0.1723 h
- AUC 0-inf_obs [1, 6]: 1.611 ng·h/mL
- AUC 0-t [1, 6]: 0.8 ± 1 ng·h/mL
- AUMC 0-inf_obs [1, 6]: 0.6699 ng/ml * h^2
- Cl/F_obs [1, 6]: 6.207 (mg/kg)/(ng/ml)/h
- Cmax [1, 6]: 1.7 ± 1.3 ng/mL
- Lambda_z [1, 6]: 4.022 h⁻¹
- MRT 0-inf_obs [1, 6]: 0.4158 h
- Tlag [1, 6]: 0 ± 0 h
- Tmax [1, 6]: 0.3 ± 0 h
- Vz/F_obs [1, 6]: 1.543 (mg/kg)/(ng/ml)
- t1/2 [1, 6]: 0.1723 h
- AUC 0-inf_obs [1, 7]: 1.611 ng·h/mL
- AUMC 0-inf_obs [1, 7]: 0.6699 ng/ml * h^2
- Cl/F_obs [1, 7]: 6.207 (mg/kg)/(ng/ml)/h
- Lambda_z [1, 7]: 4.022 h⁻¹
- MRT 0-inf_obs [1, 7]: 0.4158 h
- Tlag [1, 7]: 0 h
- Tmax [1, 7]: 0.25 h
- Vz/F_obs [1, 7]: 1.543 (mg/kg)/(ng/ml)
- t1/2 [1, 7]: 0.1723 h
- AUC 0-t [1, 8]: 0.08927 ng·h/mL and 1.5726 ng·h/mL
- Cmax [1, 8]: 0.765 ng/mL and 2.66 ng/mL
- AUMC 0-inf_obs [1, 9]: 0 ng/ml * h^2
- Cl/F_obs [1, 9]: 0 (mg/kg)/(ng/ml)/h
- Lambda_z [1, 9]: 0 h⁻¹
- Tlag [1, 9]: 0 h
- Tmax [1, 9]: 0 h
- Vz/F_obs [1, 9]: 0 (mg/kg)/(ng/ml)
- AUMC 0-inf_obs [1, 10]: 0 ng/ml * h^2
- Cl/F_obs [1, 10]: 0 (mg/kg)/(ng/ml)/h
- Lambda_z [1, 10]: 0 h⁻¹
- Tlag [1, 10]: 0 h
- Tmax [1, 10]: 0 h
- Vz/F_obs [1, 10]: 0 (mg/kg)/(ng/ml)
- AUMC 0-inf_obs [1, 11]: 0 ng/ml * h^2
- Cl/F_obs [1, 11]: 0 (mg/kg)/(ng/ml)/h
- Lambda_z [1, 11]: 0 h⁻¹
- Tlag [1, 11]: 0 h
- Tmax [1, 11]: 0 h
- Vz/F_obs [1, 11]: 0 (mg/kg)/(ng/ml)
- SGF Stability (pH 1.2) Half-Life (min) ([2]; +Pepsin (0.32%)): 84.5 min
- SGF Stability (pH 1.2) 0 min ([2]; +Pepsin (0.32%)): 100%
- SGF Stability (pH 1.2) 60 min ([2]; +Pepsin (0.32%)): 57%
- SGF Stability (pH 1.2) 120 min ([2]; +Pepsin (0.32%)): 37%
- SGF Stability (pH 1.2) 240 min ([2]; +Pepsin (0.32%)): 26%
- SGF Stability (pH 1.2) Half-Life (min) ([2]; −Pepsin): 116.5 min
- SGF Stability (pH 1.2) 0 min ([2]; −Pepsin): 100%
- SGF Stability (pH 1.2) 60 min ([2]; −Pepsin): 70%
- SGF Stability (pH 1.2) 120 min ([2]; −Pepsin): 57%
- SGF Stability (pH 1.2) 240 min ([2]; −Pepsin): 60%
